Measured values: US7374905B2, “Medium composition, method and device for selectively enhancing the isolation of anaerobic microorganisms contained in a mixed sample with facultative microorganisms” (Oxyrase, Inc., priority 2000, dated 2008)

Experiments:
[1] = system: F. nucleatum mixed with E. coli and P. mirabilis; assay type: cell-based
[2] = system: P. levii mixed with E. coli and P. mirabilis; assay type: cell-based
[3] = system: P. anaerobius mixed with E. coli and P. mirabilis; assay type: cell-based
[4] = system: Peptostreptococcus anaerobius; conditions: 48 hours, cultures of Table 4
[5] = system: B. fragilis mixed with E. coli and P. mirabilis; assay type: cell-based
Fusobacterium nucleatum = conditions: 48 hours, cultures of Table 4
[6] = system: C. perfringens mixed with E. coli and P. mirabilis; assay type: cell-based

For `[N-]=[N+]=[N-]` [Azide, sodium azide], the “Lowest concentration of azide in the tube that successfully separated the anaerobe” value (from here on “Lowest concentration of azide”) [1] was 0.1 mg/mL, the “Lowest concentration of azide” value [2] was 0.1 mg/mL and the “Lowest concentration of azide” value [3] was 0.1 mg/mL. For the same molecule, the “Level of growth (below visible turbidity)” value [4] was “less than 10^7 CFU/ml”, the “Concentration of azide at which swarming is inhibited” value (Proteus mirabilis) was “above 0.1 mg/ml” and the “Lowest concentration of azide” value [5] was 0.2 mg/mL. The “Level of growth (below visible turbidity)” value (Fusobacterium nucleatum) was “less than 10^7 CFU/ml”, the “Concentration of azide that inhibited growth in anoxic broth” value (Escherichia coli) was no more than 0.1 mg/mL and the “Lowest concentration of azide” value [6] was 0.1 mg/mL.
